Source: patent publication US20190054051A1, “DOPA Formulations for Treatments of Parkinson's Disease” (The Board of Trustees of the Leland Stanford Junior …, priority 2017, published 2019)

Experiments:
[1] = test system: ChAT; assay: ChAT immunoreactivity (fluorescence intensity) in cholinergic interneurons; design: species or system mice; details: mouse, in vivo
Method: (§1) Immunohistochemical analysis was performed with commonly known procedures. Mice were transcardially perfused with ice-cold 4% paraformaldehyde in PBS 45 minutes after challenge with L-DOPA or DOPA-ranitidine formulations. The brain was dissected out, post-fixed in 4% PFA overnight at 4° C., and cryoprotected using 30% sucrose in PBS. Cryoprotected brains were stored at −80° C. For TH immunostaining 30 μm coronal sections were taken around both CPu and substantia nigra, to examine dopaminergic denervation at the level of striatum and neuronal cell body loss at the level of substantia nigra. For pERK, ChAT, FoxP and AFos B expression, only coronal sections at the level of striatum was used. Free-floating coronal sections were blocked in blocking buffer (PBS with 2% BSA, 0.3% TritonX-100) for 1 hr at room temperature with gentle rocking. Sections were then transferred to incubation solution (PBS with 1% BSA, 0.03% TritonX-100) and the respective primary antibody as shown in table 1 and incubated at 4° C. for 24-48 hrs with gentle shaking. The sections were mounted with fluorescein or DAPI containing mounting media and serial z stack images were taken using Zeiss laser scanning confocal microscope LSM 800 at Stanford Cell Sciences Imaging facility. […]

[2] = test system: pERK, ChAT and H2R; assay: Immunohistochemical co-localization of pERK, ChAT and H2R in striatum; format: in vivo, mice; details: lesioned striatum
Method: as §1, with “-80°” for “−80°”

N[C@@H](Cc1ccc(O)c(O)c1)C(=O)O [L-DOPA, L-3,4-dihydroxyphenylalanine]
ChAT immunoreactivity (FI), lesioned side versus intact side [1]: slightly lower on the lesioned side than the intact side
triple labeling of pERK, ChAT and H2R [2]: Occasional triple labeling
